Measurements from US20020091095A1, “Modulation of Fas and FasL expression” (priority 1999, published 2002).

Key:
FasL [1] = test: FasL expression at the cell surface by flow cytometry, LNCaP cells; assay type: cell-based, human; details: LNCaP prostate cancer cells, 100 μg/ml sequence, 48 h, treated vs control cells
Procedure: (§1) Cancer cells and PBMCs were seeded in 6 well flat-bottom microplates and were maintained at 37° C. in a 5% CO2 atmosphere. Unless stated otherwise, 2×10^5 cells/ml were incubated for 48 h with 0 μg/ml (control) or 100 μg/ml ([…]) (treated) of the sequences.
(§2) Fas and FasL expression were measured by flow cytometry using anti-Fas FITC-conjugated monoclonal antibodies and anti-FasL PE-conjugated monoclonal antibodies in a FACScalibur Flow Cytometer (Becton Dickinson, San Jose, Calif., USA) using the CELLQuest program (Becton Dickinson).
(§3) Results are expressed as percentage (%) increase in the expression of Fas and of FasL measured on treated cells compared to control cells.
(§4) LNCaP prostate cancer cells are a TGF-beta 1 receptor negative, […], metastatic human solid tumor model.

Fas [2] = test: Fas expression at the cell surface by flow cytometry, LNCaP cells; assay type: cell-based, human; details: LNCaP prostate cancer cells, 100 μg/ml sequence, 48 h, treated vs control cells
Procedure: as §1, §2, §3, §4

Fas [3] = test: Fas expression at the cell surface by flow cytometry, Jurkat cells; assay type: cell-based; details: Jurkat human leukemia T cells, 100 μg/ml sequence, 48 h, treated vs control cells
Procedure: as §1, §2, §3
(§5) Jurkat human leukemia T cells are an atypical multi-drug resistant human suspension tumor cell model.

FasL [4] = test: FasL expression at the cell surface by flow cytometry, PBMCs; assay type: cell-based, human; details: 100 μg/ml sequence, 48 h, treated vs control cells
Procedure: (§6) Peripheral blood mononuclear cells (hereinafter, “PBMCs”) were isolated from human blood by Ficoll-Hypaque (Amersham Pharmacia Biotech, Baie d'Urfée, Québec, Canada) density gradient centrifugation.
as §1, §2, §3

EAE = EAE in (SJL/J×PL/J) F1 mice induced with myelin basic protein; assay type: in vivo; details: for progression of EAE: sequence 1, 10 or 100 mg/kg + anti-Fas antibodies, for 3 days
Procedure: Female (SJL/J×PL/J) F1 mice are injected subcutaneously in both femoral regions with an emulsion containing 0.5 mg of myelin basic protein (MBP) mixed with complete Freund's adjuvant. After 24 h, 400 ng of Bordetella pertussis toxin is administered intraperitoneally. On the day of onset (day 0), group 1 mice receive saline, group 2 mice receive 1, 10 or 100 mg/kg of SEQ. ID NO:5, group 3 mice receive 1, 10 or 100 mg/kg of SEQ. ID NO:16, group 4 mice receive 1, 10 or 100 mg/kg of SEQ. ID NO:17, group 5 mice receive 1, 10 or 100 mg/kg of SEQ. ID NO: 18, group 6 mice receive anti-Fas antibodies, group 7 mice receive 1, 10 or 100 mg/kg of SEQ. ID NO:5 +anti-Fas antibodies, group 8 mice receive 1, 10 or 100 mg/kg of SEQ. ID NO:16 +anti-Fas antibodies, group 9 receive 1, 10 or 100 mg/kg of SEQ. ID NO:17 +anti-Fas antibodies, group 10 mice receive 1, 10 or 100 mg/kg of SEQ. ID NO: 18 +anti-Fas antibodies for 3 days by intracistemal administration (20 μg/day). In these different groups, anti-Fas antibodies are administered at any dose in the range of about 0.003 to about 0.3 mg/kg. […] The efficacy of the SEQ. ID NO:5, the SEQ. ID NO: 16 and the SEQ. ID NO: 17 is dose-dependent.

Fas [5] = test: Fas expression at the cell surface by flow cytometry, OVCAR-3 cells; assay type: cell-based, human; details: OVCAR-3 ovarian cancer cells, 100 μg/ml sequence, 48 h, treated vs control cells
Procedure: as §1, §2, §3
(§7) OVCAR-3 ovarian cancer cells are a p53 mutated, p21/waf-1/Cip deleted, metastatic human solid tumor model.

FasL [6] = test: FasL expression at the cell surface by flow cytometry, OVCAR-3 cells; assay type: cell-based, human; details: OVCAR-3 ovarian cancer cells, 100 μg/ml sequence, 48 h, treated vs control cells
Procedure: as §1, §2, §3, §7

FasL [7] = test: FasL expression at the cell surface by flow cytometry, T-24 cells; assay type: cell-based, human; details: T-24 bladder cancer cells, 100 μg/ml sequence, 48 h, treated vs control cells
Procedure: as §1, §2, §3
(§8) T-24 bladder cancer cells are a p53 mutated human cell line T-24 cells (1.0×10^5 cells/ml) were incubated with the 6 base sequences shown in Table 4.

FasL [8] = test: FasL expression at the cell surface by flow cytometry, SK-OV-3 cells; assay type: cell-based, human; details: SK-OV-3 ovarian cancer cells, 100 μg/ml sequence, 48 h, treated vs control cells
Procedure: as §1, §2, §3
(§9) SK-OV-3 ovarian cancer cells are a p53 mutated, p21/waf-1/Cip deleted, p15^ink4B,p16^ink4 deleted metastatic human solid tumor model.

Fas [9] = test: Fas expression at the cell surface by flow cytometry, UMUC-3 cells; assay type: cell-based, human; details: UMUC-3 bladder cancer cells, 100 μg/ml sequence, 48 h, treated vs control cells
Procedure: as §1, §2, §3
(§10) UMUC-3 bladder cancer cells are a P-glycoprotein overexpressing human cell line.

Fas [10] = test: Fas expression at the cell surface by flow cytometry, SK-OV-3 cells; assay type: cell-based, human; details: SK-OV-3 ovarian cancer cells, 100 μg/ml sequence, 48 h, treated vs control cells
Procedure: as §1, §2, §3, §9

Fas [11] = test: Fas expression at the cell surface by flow cytometry, PBMCs; assay type: cell-based, human; details: 100 μg/ml sequence, 48 h, treated vs control cells
Procedure: as §6, §1, §2, §3

FasL [12] = test: FasL expression at the cell surface by flow cytometry, Jurkat cells; assay type: cell-based; details: Jurkat human leukemia T cells, 100 μg/ml sequence, 48 h, treated vs control cells
Procedure: as §1, §2, §3, §5

[13] = system: EL-4 murine T lymphoma cells; test: EL-4 murine T lymphoma implanted in C57/BL6 lpr/lpr mice; assay type: in vivo
Procedure: EL-4 murine T lymphoma cells are implanted into C57/BL6 lpr/lpr (Fas negative mice). The mice are divided into 30 groups of 10 mice. On day 0, group 1 mice receive saline, group 2 mice receive 1, 10 or 100 mg/kg of SEQ. ID NO:5, group 3 mice receive 1, 10 or 100 mg/kg of SEQ. ID NO:16, group 4 receive 1, 10 or 100 mg/kg of SEQ. ID NO:17, group 5 mice receive 1, 10 or 100 mg/kg of SEQ. ID NO: 18, group 6 mice receive anti-Fas antibodies, group 7 mice receive 1, 10 or 100 mg/kg of SEQ. ID NO:5 +anti-Fas antibodies, group 8 mice receive 1, 10 or 100 mg/kg of SEQ. ID NO: 16 +anti-Fas antibodies, group 9 receive 1, 10 or 100 mg/kg of SEQ. ID NO:17 +anti-Fas antibodies, group 10 mice receive 1, 10 or 100 mg/kg of SEQ. ID NO:18 +anti-Fas antibodies. In these different groups, anti-Fas antibodies are administered at any dose in the range of about 0.003 to about 0.3 mg/kg. […] The efficacy of the SEQ. ID NO:5, the SEQ. ID NO: 16 and the SEQ. ID NO: 17 is dose-dependent.

FasL [14] = test: FasL expression at the cell surface by flow cytometry, MCF-7 cells; assay type: cell-based, human; details: MCF-7 breast cancer cells, 100 μg/ml sequence, 48 h, treated vs control cells
Procedure: as §1, §2, §3
(§11) MCF-7 human breast cancer cells are a caspase-3 negative, estrogen-dependent human solid tumor model.

Fas [15] = test: Fas expression at the cell surface by flow cytometry, T-24 cells; assay type: cell-based, human; details: T-24 bladder cancer cells, 100 μg/ml sequence, 48 h, treated vs control cells
Procedure: as §1, §2, §3, §8

Fas [16] = test: Fas expression at the cell surface by flow cytometry, MCF-7 cells; assay type: cell-based, human; details: MCF-7 breast cancer cells, 100 μg/ml sequence, 48 h, treated vs control cells
Procedure: as §1, §2, §3, §11

FasL [17] = test: FasL expression at the cell surface by flow cytometry, UMUC-3 cells; assay type: cell-based, human; details: UMUC-3 bladder cancer cells, 100 μg/ml sequence, 48 h, treated vs control cells
Procedure: as §1, §2, §3, §10

[18] = sequence 1, 10 or 100 mg/kg + anti-Fas antibodies, vs all other groups
[19] = single agent (sequence 1, 10 or 100 mg/kg, or anti-Fas antibodies) vs group 1 (saline)

| Sequence | % INCREASE FasL (FasL [1]) | % INCREASE Fas (Fas [2]) | % INCREASE Fas (Fas [3]) | % INCREASE FasL (FasL [4]) | progression of EAE (EAE) | % INCREASE Fas (Fas [5]) | % INCREASE FasL (FasL [6]) | % INCREASE FasL (FasL [7]) | % INCREASE FasL (FasL [8]) | % INCREASE Fas (Fas [9]) | % INCREASE Fas (Fas [10]) | % INCREASE Fas (Fas [11]) | % INCREASE FasL (FasL [12]) | tumor mass [13, 18] | tumor mass [13, 19] | % INCREASE FasL (FasL [14]) | % INCREASE Fas (Fas [15]) | % INCREASE Fas (Fas [16]) | % INCREASE FasL (FasL [17]) | further results |
| --- | --- | --- | --- | --- | --- | --- | --- | --- | --- | --- | --- | --- | --- | --- | --- | --- | --- | --- | --- | --- |
| GGGCGG [SEQ ID NO:18] | 126% | 55% | 208% | 850% | least progression of EAE | 65% | 142% | 205% | 42% | 72% | 29% | 523% | 356% | least tumor mass | less tumor mass | 322% | 139% | 165% | 250% |  |
| GGGGGG [SEQ ID NO:16] | 13% | 6% | 118% | 42% | least progression of EAE | −1% | 7% | −14% | −28% | −5% | −14% | 38% | 49% | least tumor mass | less tumor mass | 18% | 35% | −7% | 10% | efficacy, dose dependence (EAE; 1, 10 or 100 mg/kg): dose-dependent; efficacy, dose dependence ([13]; 1, 10 or 100 mg/kg): dose-dependent |
| TTTGTT [SEQ ID NO:3] | 344% | 199% | 258% | 1528% |  | 193% | 341% | 549% | 103% | 108% | 108% | 1165% | 497% |  |  | 528% | 279% | 361% | 231% |  |
